The record followed here is article PMC5478727, “A Novel Small Molecule GDNF Receptor RET Agonist, BT13, Promotes Neurite Growth from Sensory Neurons in Vitro and Attenuates Experimental Neuropathy in the Rat” (Frontiers in Pharmacology, 2017).

Structures are written as SMILES.

Assay [1] concerns the target T1, serotonin receptor 5-HT2A (Homo sapiens, UniProt P28223).
T1 construct: purchased CEREP (contract assay) 0471
Kind of assay: CEREP 5-HT2A (h) (agonist radioligand). The class given is binding. Particulars: BT13 1 μM; Cat. No. 0471; average of duplicate; read-out: Percentage of inhibition/potentiation from control.

Assay [2] deals with T2, monoamine oxidase A (MAO-A) (Rattus norvegicus, UniProt P21396).
T2 construct: purchased CEREP (contract assay) 0443
T2 sequence (P21396 whole entry): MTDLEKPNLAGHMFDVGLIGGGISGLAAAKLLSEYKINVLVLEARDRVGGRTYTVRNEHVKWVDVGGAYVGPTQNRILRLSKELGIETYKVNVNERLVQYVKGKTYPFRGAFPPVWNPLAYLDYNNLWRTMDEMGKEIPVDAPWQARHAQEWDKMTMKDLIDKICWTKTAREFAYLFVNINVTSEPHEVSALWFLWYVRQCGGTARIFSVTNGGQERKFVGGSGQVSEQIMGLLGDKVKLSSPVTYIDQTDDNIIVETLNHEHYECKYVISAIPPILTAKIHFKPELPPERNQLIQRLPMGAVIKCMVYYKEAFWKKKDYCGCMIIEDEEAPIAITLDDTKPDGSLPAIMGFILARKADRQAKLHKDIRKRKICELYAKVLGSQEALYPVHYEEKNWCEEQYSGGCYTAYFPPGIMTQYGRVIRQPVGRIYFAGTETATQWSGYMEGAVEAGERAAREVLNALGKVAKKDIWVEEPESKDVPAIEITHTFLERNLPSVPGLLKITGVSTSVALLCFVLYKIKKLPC
Kind of assay: CEREP MAO-A (antagonist radioligand). In kind it is binding. Particulars: BT13 1 μM; Cat. No. 0443; average of duplicate; read-out: Percentage of inhibition/potentiation from control.

In assay [3] the target is T3, Protein Serine/Threonine Phosphatase, PP2A (Homo sapiens, UniProt P67775).
T3 construct: purchased CEREP (contract assay) 3953
T3 sequence (P67775 whole entry): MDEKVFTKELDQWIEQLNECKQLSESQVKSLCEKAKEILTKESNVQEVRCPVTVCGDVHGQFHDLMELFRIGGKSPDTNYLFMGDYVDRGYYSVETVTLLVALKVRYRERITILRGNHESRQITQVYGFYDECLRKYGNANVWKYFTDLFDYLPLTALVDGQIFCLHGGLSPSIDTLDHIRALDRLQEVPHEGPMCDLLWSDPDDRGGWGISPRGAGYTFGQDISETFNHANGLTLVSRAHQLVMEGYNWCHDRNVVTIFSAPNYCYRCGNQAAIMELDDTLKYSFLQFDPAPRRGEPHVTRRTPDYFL
Kind of assay: CEREP Protein Serine/Threonine Phosphatase, PP2A. The class given is biochemical. Particulars: BT13 1 μM; Cat. No. 3953; average of duplicate; read-out: Percentage of inhibition/potentiation from control.

For assay [4], the target named is T4, vasoactive intestinal peptide receptor PAC1 (PACAP) (Homo sapiens, UniProt P41586).
T4 construct: purchased CEREP (contract assay) 1518
T4 sequence (P41586 21-468): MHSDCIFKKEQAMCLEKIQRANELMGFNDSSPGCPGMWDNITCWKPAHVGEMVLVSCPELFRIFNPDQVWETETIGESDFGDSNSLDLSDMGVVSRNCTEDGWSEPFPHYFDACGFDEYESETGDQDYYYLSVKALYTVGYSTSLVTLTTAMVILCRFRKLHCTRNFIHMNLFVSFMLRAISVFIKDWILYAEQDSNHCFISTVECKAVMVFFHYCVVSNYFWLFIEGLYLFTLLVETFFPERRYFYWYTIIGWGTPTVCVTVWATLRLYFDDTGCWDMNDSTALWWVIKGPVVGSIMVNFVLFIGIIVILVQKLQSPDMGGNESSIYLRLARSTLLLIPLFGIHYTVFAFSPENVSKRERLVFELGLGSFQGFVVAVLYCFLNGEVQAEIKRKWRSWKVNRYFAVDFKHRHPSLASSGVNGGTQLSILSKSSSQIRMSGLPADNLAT
Kind of assay: CEREP PAC1 (PACAP) (h) (agonist radioligand). The class given is binding. To be noted: BT13 1 μM; Cat. No. 1518; average of duplicate; read-out: Percentage of inhibition/potentiation from control.

The target of assay [5] is opioid receptor delta (DOP) (Homo sapiens, UniProt P41143). Kind of assay: CEREP Delta (DOP) (h) (agonist radioligand). The class given is binding. To be noted: BT13 1 μM; Cat. No. 0114; average of duplicate; read-out: Percentage of inhibition/potentiation from control.
opioid receptor delta (DOP), sequence (P41143 whole entry): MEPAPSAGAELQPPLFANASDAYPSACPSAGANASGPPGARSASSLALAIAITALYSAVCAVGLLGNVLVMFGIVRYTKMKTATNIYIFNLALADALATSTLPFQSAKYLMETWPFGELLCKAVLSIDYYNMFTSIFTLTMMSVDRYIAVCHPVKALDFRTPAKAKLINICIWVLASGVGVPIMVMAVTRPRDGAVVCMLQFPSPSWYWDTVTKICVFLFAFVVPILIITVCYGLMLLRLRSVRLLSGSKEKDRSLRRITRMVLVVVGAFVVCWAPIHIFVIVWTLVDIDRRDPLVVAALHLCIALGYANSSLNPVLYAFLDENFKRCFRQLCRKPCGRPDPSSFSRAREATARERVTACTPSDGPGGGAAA

T1 sequence (P28223 whole entry): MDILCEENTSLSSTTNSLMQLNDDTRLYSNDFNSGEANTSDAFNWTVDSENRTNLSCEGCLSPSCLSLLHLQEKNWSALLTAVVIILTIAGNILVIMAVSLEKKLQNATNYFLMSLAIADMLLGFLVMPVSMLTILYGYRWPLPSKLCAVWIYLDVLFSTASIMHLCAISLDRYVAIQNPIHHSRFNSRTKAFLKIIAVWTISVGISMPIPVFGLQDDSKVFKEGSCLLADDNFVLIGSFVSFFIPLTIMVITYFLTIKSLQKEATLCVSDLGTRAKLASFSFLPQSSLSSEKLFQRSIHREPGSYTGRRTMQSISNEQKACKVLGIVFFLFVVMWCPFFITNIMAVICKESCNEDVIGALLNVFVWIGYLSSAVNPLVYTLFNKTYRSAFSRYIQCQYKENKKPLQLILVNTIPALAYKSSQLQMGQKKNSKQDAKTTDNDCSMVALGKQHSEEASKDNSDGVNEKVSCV

With `CCN(CC)S(=O)(=O)c1ccc(OC)c(N2CCN(C(=O)c3ccc(F)cc3C(F)(F)F)CC2)c1` [BT13], the inhibition at 1 µM in assay [1] is -11%; in assay [2], 5%; in assay [3] it was 4%; in assay [4] it was 14%; in assay [5] it was 3%.
